Test results published in US20110028447A1, “INDAZOLE DERIVATIVES” (Pfizer Inc., priority 2008, published 2011).
Read-outs that look alike come from different tables or passages of the source.

Columns and labels:
human CB1 receptor [1] = target: T1, human CB1 receptor (Homo sapiens, UniProt P21554); experiment: Human CB1 receptor binding, [3H] CP-55,940 displacement on HEK cell membranes; set-up: expressed in transfected cells; host or cells: HEK cells, doxycycline-induced; membrane preparation
How it was run: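 Radioligand displacement: [3H] CP-55,940 at […] final, 1 μg membrane protein per well from HEK cells with tetracycline-inducible human CB1, 60 min at room temperature, pH 7.4 Tris/NaCl/MgCl2/EGTA/BSA buffer. 50 μM WIN-55,212-2 set nonspecific binding; bound label filtered, counted, and fitted for EC50 and Ki values.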

human CB1 receptor [2] = target: T1, human CB1 receptor; experiment: [35S] GTPγS binding on membranes of CHO cells expressing the human CB1 receptor (agonism); assay type: biochemical; set-up: expressed in transfected cells; membrane preparation
How it was run: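 Membranes from human CB1-expressing CHO cells (5 μg/well) incubated with test compound and [35S]GTPγS in 50 mM Tris pH 7.4, 100 mM NaCl, 3 mM MgCl2, 0.2 mM EGTA, 0.04% BSA for 45 min at 37 °C. Bound label collected by filtration, scintillation counted; EC50 from curve fits.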

[3] = human CB1, CHO cell membranes, read-out: GTPγS EC50
[4] = GTPγS EC50, human CB1, CHO cell membranes

T1 sequence (P21554 whole entry): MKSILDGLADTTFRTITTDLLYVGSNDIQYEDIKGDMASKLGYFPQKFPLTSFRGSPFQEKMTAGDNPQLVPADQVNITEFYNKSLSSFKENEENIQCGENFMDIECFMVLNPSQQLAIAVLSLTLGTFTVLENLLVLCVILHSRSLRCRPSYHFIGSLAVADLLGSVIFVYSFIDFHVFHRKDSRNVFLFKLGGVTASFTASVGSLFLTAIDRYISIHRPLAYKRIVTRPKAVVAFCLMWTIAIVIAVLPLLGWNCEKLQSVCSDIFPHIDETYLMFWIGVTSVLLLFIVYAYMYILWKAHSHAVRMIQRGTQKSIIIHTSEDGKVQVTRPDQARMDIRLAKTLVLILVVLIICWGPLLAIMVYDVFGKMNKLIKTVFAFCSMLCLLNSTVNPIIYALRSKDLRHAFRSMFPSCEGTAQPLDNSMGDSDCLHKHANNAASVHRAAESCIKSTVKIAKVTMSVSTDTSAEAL

| Compound | Ki (human CB1 receptor [1]; read-out: CB1 Ki) | EC50 (human CB1 receptor [2]; [3]) | Ki (human CB1 receptor [1]; CB1 Ki) | EC50 (human CB1 receptor [2]; [4]) |
| --- | --- | --- | --- | --- |
| CC(C)(C)C(NC(=O)c1nn(Cc2ccc(F)cc2)c2ccccc12)c1nnc(CC(N)=O)o1 (centres unmarked) [Example 120] | 3.05 nM | 40 nM | – | – |
| CC(C)(C)C(NC(=O)c1nn(Cc2ccc(F)cc2)c2c(Cl)cccc12)C(=O)NCCO (centres unmarked) [Example 183] | – | – | 0.26 nM | 0.83 nM |
| CC(C)(C)[C@H](NC(=O)c1nn(Cc2ccc(C#N)cc2)c2ccccc12)C(=O)N[C@H]1C[C@H](O)C1 [Example 354] | – | – | 11.7 nM | > 500 nM |
| CC(C)(C)[C@H](NC(=O)c1nn(Cc2ccc(F)cc2)c2c(F)c(F)ccc12)C(=O)NC[C@H](O)CO [Example 323] | – | – | 2.99 nM | 22.5 nM |
| CC(C)(C)C(NC(=O)c1nn(Cc2ccc(F)cc2)c2c(F)cccc12)C(=O)NC1CC1 (centres unmarked) [Example 176] | – | – | 0.22 nM | 0.51 nM |
| CC(C)(C)[C@H](NC(=O)c1nn(Cc2ccc(F)cc2)c2ccccc12)C(=O)N[C@H]1C[C@@H](C(N)=O)C1 [Example 398] | – | – | 5.8 nM | 26.6 nM |
| CC(C)(C)[C@H](NC(=O)c1nn(Cc2ccc(F)cc2)c2ccccc12)C(=O)NCCS(=O)(=O)NCC1CC1 [Example 400] | 12.3 nM | 28.1 nM | – | – |
| CC(C)(C)[C@H](NC(=O)c1nn(Cc2ccc(F)cc2)c2ccccc12)C(=O)NCC1CNC(=O)O1 (some centres unmarked) [Example 315] | – | – | 2.91 nM | 8.67 nM |
| CC(C)(C)C(NC(=O)c1nn(Cc2ccc(F)cc2)c2ccc(F)cc12)C(N)=O (centres unmarked) [Example 170] | – | – | 0.27 nM | 0.7 nM |
| CC(C)(C)[C@H](NC(=O)c1nn(Cc2ccc(F)cc2)c2ccccc12)C(=O)N1CCC(C(N)=O)CC1 [Example 225] | 6.3 nM | 26.9 nM | – | – |
| CC(C)(C)C(NC(=O)c1nn(Cc2ccccc2)c2ccccc12)C(=O)NCCNC(N)=O (centres unmarked) [Example 83] | – | – | 15.3 nM | 720 nM |
| CC(C)(C)[C@H](NC(=O)c1nn(Cc2ccc(F)cc2)c2ccccc12)C(=O)NCc1cnn(-c2ccccc2)n1 [Example 427] | 15 nM | 50.5 nM | – | – |
| CC(C)(C)C(NC(=O)c1nn(Cc2ccc(C#N)cc2)c2c(Cl)cccc12)C(=O)NCC(O)CO (centres unmarked) [Example 203] | – | – | 10.2 nM | 63.2 nM |
| CC(C)(C)[C@H](NC(=O)c1nn(Cc2ccc(F)cc2)c2ccccc12)C(=O)NCc1cc(C2CC2)[nH]n1 [Example 422] | 4.67 nM | 19.6 nM | – | – |
| CC(C)(C)[C@H](NC(=O)c1nn(Cc2ccc(F)cc2)c2ccccc12)C(=O)NCc1n[nH]c(C2CC2)n1 [Example 413] | 14 nM | 52 nM | – | – |
| CC(C)(C)[C@H](NC(=O)c1nn(Cc2ccccc2F)c2ccccc12)C(N)=O [Example 13] | – | – | 0.73 nM | 11.9 nM |
| CC(C)(C)C(NC(=O)c1nn(Cc2ccc(F)cc2)c2ccccc12)C(=O)N1CCC(O)C1 (centres unmarked) [Example 151] | – | – | 1.63 nM | 6.3 nM |
| CC(C)(C)[C@H](NC(=O)c1nn(Cc2ccc(F)cc2)c2ccccc12)C(=O)N[C@@H]1CC[C@@H](O)C1 [Example 289] | – | – | 5.13 nM | 35.8 nM |
| CC(C)(C)C(NC(=O)c1nn(Cc2ccc(F)cc2)c2ccccc12)c1nnc(C(N)=O)o1 (centres unmarked) [Example 122] | 0.73 nM | 13.1 nM | – | – |
| CC(C)(C)C(NC(=O)c1nn(Cc2ccccc2)c2cc(Br)ccc12)C(N)=O (centres unmarked) [Example 33] | – | – | 0.24 nM | 0.92 nM |
| CC(C)(C)C(NC(=O)c1nn(Cc2ccc(F)cc2)c2ccc(F)cc12)C(=O)NCC(N)=O (centres unmarked) [Example 173] | – | – | 2.37 nM | 5.12 nM |
| CC(C)(C)C(NC(=O)c1nn(Cc2ccc(F)cc2)c2c(F)cccc12)C(=O)NCCO (centres unmarked) [Example 177] | – | – | 0.28 nM | 0.31 nM |
| CC(C)(C)C(NC(=O)c1nn(Cc2ccc(F)cc2)c2ccccc12)C(=O)NCCN1CCOCC1 (centres unmarked) [Example 141] | 9.42 nM | 41.1 nM | – | – |
| CC(C)(C)[C@H](NC(=O)c1nn(Cc2ccc(C#N)cc2)c2c(F)cccc12)C(=O)N1CC(C(N)=O)C1 [Example 352] | – | – | 4.14 nM | 49.5 nM |
| CC(C)(C)C(NC(=O)c1nn(Cc2ccc(F)cc2)c2c(Cl)cccc12)C(N)=O (centres unmarked) [Example 181] | – | – | 0.1 nM | 0.33 nM |
